Assay results taken from PubChem BioAssay (NCI).
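A five-concentration, 48-hour dose response in 96-well plates underlies each endpoint, interpolated linearly between surrounding concentrations. GI50 marks 50% less growth. TGI denotes the concentration required for complete inhibition of growth.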

Experiments:
Assay in all cases: NCI anticancer screen, dose series, 48 h
HCC-2998 colon = test system: HCC-2998 colon
SK-MEL-28 melanoma = test system: SK-MEL-28 melanoma
UO-31 renal = test system: UO-31 renal
CAKI-1 renal = test system: CAKI-1 renal
A498 renal = test system: A498 renal
786-0 renal = test system: 786-0 renal
KM12 colon = test system: KM12 colon
HOP-62 NSCLC = test system: HOP-62 NSCLC
RPMI-8226 leukemia = test system: RPMI-8226 leukemia
UACC-257 melanoma = test system: UACC-257 melanoma
OVCAR-4 ovarian = test system: OVCAR-4 ovarian
SNB-19 CNS = test system: SNB-19 CNS
A549 NSCLC = test system: A549 NSCLC
HS 578T breast = test system: HS 578T breast
SF-539 CNS = test system: SF-539 CNS
NCI-H226 lung = test system: NCI-H226 lung
DU-145 prostate = test system: DU-145 prostate
K-562 leukemia = test system: K-562 leukemia
OVCAR-8 ovarian = test system: OVCAR-8 ovarian
SK-MEL-2 melanoma = test system: SK-MEL-2 melanoma
HCT-116 colon = test system: HCT-116 colon
UACC-62 melanoma = test system: UACC-62 melanoma
SN12C renal = test system: SN12C renal
CCRF-CEM leukemia = test system: CCRF-CEM leukemia
MALME-3M melanoma = test system: MALME-3M melanoma
SK-OV-3 ovarian = test system: SK-OV-3 ovarian
IGROV1 ovarian = test system: IGROV1 ovarian
HL-60(TB) leukemia = test system: HL-60(TB) leukemia
HOP-92 NSCLC = test system: HOP-92 NSCLC
SR leukemia = test system: SR leukemia
MOLT-4 leukemia = test system: MOLT-4 leukemia
NCI/ADR-RES ovarian = test system: NCI/ADR-RES ovarian
SK-MEL-5 melanoma = test system: SK-MEL-5 melanoma
U251 CNS = test system: U251 CNS
M14 melanoma = test system: M14 melanoma
OVCAR-3 ovarian = test system: OVCAR-3 ovarian
TK-10 renal = test system: TK-10 renal
SNB-75 CNS = test system: SNB-75 CNS
SW-620 colon = test system: SW-620 colon
PC-3 prostate = test system: PC-3 prostate
BT-549 breast = test system: BT-549 breast
HT29 colon = test system: HT29 colon
T-47D breast = test system: T-47D breast
MDA-MB-231 breast = test system: MDA-MB-231 breast
OVCAR-5 ovarian = test system: OVCAR-5 ovarian
NCI-H23 lung = test system: NCI-H23 lung
ACHN renal = test system: ACHN renal
COLO 205 colon = test system: COLO 205 colon
MCF7 breast = test system: MCF7 breast
MDA-MB-435 = test system: MDA-MB-435
RXF 393 renal = test system: RXF 393 renal
NCI-H460 lung = test system: NCI-H460 lung
SF-268 CNS = test system: SF-268 CNS
SF-295 CNS = test system: SF-295 CNS

**Q.** What does the source list for `C[C@]12CC[C@@H]3c4ccc(O)cc4CC[C@H]3[C@@H]1CC[C@@H]2NS(=O)(=O)c1ccc(Cl)cc1`?
**A.** GI50 (HCC-2998 colon): 7.49 µM; TGI (HCC-2998 colon): 23.8 µM; GI50 (SK-MEL-28 melanoma): 7.45 µM; TGI (SK-MEL-28 melanoma): 22.3 µM; GI50 (UO-31 renal): 2.59 µM; TGI (UO-31 renal): 11.9 µM; GI50 (CAKI-1 renal): 3.3 µM; TGI (CAKI-1 renal): 10.4 µM; GI50 (A498 renal): 2.52 µM; TGI (A498 renal): 9.36 µM; GI50 (786-0 renal): 5.19 µM; TGI (786-0 renal): 19.7 µM; GI50 (KM12 colon): 2.86 µM; TGI (KM12 colon): 9.51 µM; GI50 (HOP-62 NSCLC): 10.2 µM; TGI (HOP-62 NSCLC): 24.4 µM; GI50 (RPMI-8226 leukemia): 3.92 µM; TGI (RPMI-8226 leukemia): 23.5 µM; GI50 (UACC-257 melanoma): 8.5 µM; TGI (UACC-257 melanoma): 23.5 µM; GI50 (OVCAR-4 ovarian): 1.99 µM; TGI (OVCAR-4 ovarian): 8.65 µM; GI50 (SNB-19 CNS): 11 µM; TGI (SNB-19 CNS): 24 µM; GI50 (A549 NSCLC): 3.98 µM; TGI (A549 NSCLC): 15.3 µM; GI50 (HS 578T breast): 2.58 µM; TGI (HS 578T breast): 14.5 µM; GI50 (SF-539 CNS): 5.36 µM; TGI (SF-539 CNS): 19.1 µM; GI50 (NCI-H226 lung): 6.43 µM; TGI (NCI-H226 lung): 21.4 µM; GI50 (DU-145 prostate): 7.53 µM; TGI (DU-145 prostate): 21.6 µM; GI50 (K-562 leukemia): 3.93 µM; TGI (K-562 leukemia): 31.7 µM; GI50 (OVCAR-8 ovarian): 4.86 µM; TGI (OVCAR-8 ovarian): 20.6 µM; GI50 (SK-MEL-2 melanoma): 5.31 µM; TGI (SK-MEL-2 melanoma): 17.7 µM; GI50 (HCT-116 colon): 4.03 µM; TGI (HCT-116 colon): 21.7 µM; GI50 (UACC-62 melanoma): 4.46 µM; TGI (UACC-62 melanoma): 17.5 µM; GI50 (SN12C renal): 3.02 µM; TGI (SN12C renal): 12.3 µM; GI50 (CCRF-CEM leukemia): 3.5 µM; TGI (CCRF-CEM leukemia): 37.6 µM; GI50 (MALME-3M melanoma): 3.25 µM; TGI (MALME-3M melanoma): 10.7 µM; GI50 (SK-OV-3 ovarian): 8.79 µM; TGI (SK-OV-3 ovarian): 22.5 µM; GI50 (IGROV1 ovarian): 5.74 µM; TGI (IGROV1 ovarian): 18.4 µM; GI50 (HL-60(TB) leukemia): 5.14 µM; TGI (HL-60(TB) leukemia): 26.6 µM; GI50 (HOP-92 NSCLC): 2.68 µM; TGI (HOP-92 NSCLC): 10.7 µM; GI50 (SR leukemia): 4.47 µM; TGI (SR leukemia): 50.8 µM; GI50 (MOLT-4 leukemia): 3.46 µM; TGI (MOLT-4 leukemia): 24.4 µM; GI50 (NCI/ADR-RES ovarian): 4 µM; TGI (NCI/ADR-RES ovarian): 16.8 µM; GI50 (SK-MEL-5 melanoma): 2.4 µM; TGI (SK-MEL-5 melanoma): 6.71 µM; GI50 (U251 CNS): 5.49 µM; TGI (U251 CNS): 18.5 µM; GI50 (M14 melanoma): 9.13 µM; TGI (M14 melanoma): 27.1 µM; GI50 (OVCAR-3 ovarian): 3.75 µM; TGI (OVCAR-3 ovarian): 12.8 µM; GI50 (TK-10 renal): 5.46 µM; TGI (TK-10 renal): 17.6 µM; GI50 (SNB-75 CNS): 2.07 µM; TGI (SNB-75 CNS): 9.17 µM; GI50 (SW-620 colon): 3.95 µM; TGI (SW-620 colon): 15.9 µM; GI50 (PC-3 prostate): 2.86 µM; TGI (PC-3 prostate): 13.5 µM; GI50 (BT-549 breast): 5.65 µM; TGI (BT-549 breast): 22.3 µM; GI50 (HT29 colon): 2.92 µM; TGI (HT29 colon): 8.19 µM; GI50 (T-47D breast): 3.66 µM; TGI (T-47D breast): 15.3 µM; GI50 (MDA-MB-231 breast): 3.6 µM; TGI (MDA-MB-231 breast): 14.2 µM; GI50 (OVCAR-5 ovarian): 6.02 µM; TGI (OVCAR-5 ovarian): 20.5 µM; GI50 (NCI-H23 lung): 5.67 µM; TGI (NCI-H23 lung): 23.1 µM; GI50 (ACHN renal): 3.5 µM; TGI (ACHN renal): 12.9 µM; GI50 (COLO 205 colon): 2.17 µM; TGI (COLO 205 colon): 4.09 µM; GI50 (MCF7 breast): 1.91 µM; TGI (MCF7 breast): 4.86 µM; GI50 (MDA-MB-435): 1.84 µM; TGI (MDA-MB-435): 3.93 µM; GI50 (RXF 393 renal): 3.02 µM; TGI (RXF 393 renal): 8.89 µM; GI50 (NCI-H460 lung): 2.6 µM; TGI (NCI-H460 lung): 6.66 µM; GI50 (SF-268 CNS): 5.69 µM; TGI (SF-268 CNS): 19.9 µM; GI50 (SF-295 CNS): 1.39 µM; TGI (SF-295 CNS): 2.72 µM
